# Measurements as given in patent US11840686B2, “Modulation of prekallikrein (PKK) expression” (Ionis Pharmaceuticals, Inc., priority 2013, dated 2023).
# Strand notation (5' to 3'): a small letter for the sugar, then the base; units joined by * are phosphorothioate-linked, units joined directly phosphodiester-linked; [ ] holds rarer units or linkages, { } end groups; capitals alone tell only the bases. e = 2'-O-(2-methoxyethyl) (MOE); [5mC] = 5-methylcytosine; d = 2'-deoxy (DNA)
# Tests used:
# human PKK mRNA [1] = assay: Antisense inhibition of human PKK mRNA in HepaRG cells, 5,000 nM (Example 2); assay type: cell-based
# Outline: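 Percent inhibition of PKK mRNA is relative to untreated control, with qRT-PCR (probe set RTS3454) values adjusted to total RNA by RIBOGREEN. Oligonucleotides, fully phosphorothioate 2′-MOE gapmers, were delivered at 5,000 nM by electroporation into 20,000 HepaRG cells/well for about 24 h.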
# human PKK mRNA [2] = assay: Dose-dependent antisense inhibition of human PKK in HepaRG cells, 0.19-5.00 uM (Example 5); assay type: cell-based
# Procedure: Cells were plated at a density of 20,000 cells per well and transfected using electroporation with 0.19 μM, 0.56 μM, 1.67 μM, and 5.00 μM concentrations of antisense oligonucleotide. After a treatment period of approximately 16 hours, RNA was isolated from the cells and PKK mRNA levels were measured by quantitative real-time PCR. Human PKK primer probe set RTS3454 was used to measure mRNA levels. PKK mRNA levels were adjusted according to total RNA content, as measured by RIBOGREEN®. The antisense oligonucleotides were tested in a series of experiments that had similar culture conditions.
# The half maximal inhibitory concentration (IC50) of each oligonucleotide is also presented.
# [3] = Table 34, HepaRG, electroporation, ~16 h
# [4] = Table 34, PKK mRNA, HepaRG, electroporation, ~16 h
# [5] = HepaRG cells, electroporation, approximately 16 hours, Table 40
# [6] = Table 13, human PKK mRNA in HepaRG cells, 5-10-5 gapmers
# [7] = HepaRG cells, electroporation, approximately 16 hours, Table 36
# [8] = HepaRG cells, electroporation, approximately 16 hours, Table 38
# [9] = HepaRG cells, electroporation, approximately 16 hours, Table 41
# [10] = 4 point dose response, HepaRG cells, Table 41
# [11] = HepaRG cells, electroporation, approximately 16 hours, Table 39
substance,measurement,setting,value
546158 (e[5mC]*eT*eT*eG*eG*dG*dT*dG*dG*dA*dA*dT*dG*dT*dG*e[5mC]*eA*e[5mC]*e[5mC]*eT; antisense) [compound 546158],% inhibition,"human PKK mRNA [1]; HepaRG cells, electroporation with 5,000 nM antisense oligonucleotide, approximately 24 hours, PKK mRNA by RT-PCR (RTS3454), relative to untreated control cells, Table 5 experiment",95%
same,percent inhibition of PKK at 0.19 μM,human PKK mRNA [2]; [3],5%
same,percent inhibition of PKK at 0.56 μM,human PKK mRNA [2]; [3],45%
same,percent inhibition of PKK at 1.67 μM,human PKK mRNA [2]; [3],79%
same,percent inhibition of PKK at 5.00 μM,human PKK mRNA [2]; [3],83%
same,IC50,human PKK mRNA [2]; [4],0.7 µM
547520 (antisense eT*e[5mC]*eA*eG*e[5mC]*d[5mC]*dA*dG*dA*d[5mC]*dA*dT*dT*dG*dT*e[5mC]*e[5mC]*eT*e[5mC]*eA) [compound 547520],% inhibition,"human PKK mRNA [1]; HepaRG cells, electroporation, 5,000 nM antisense oligonucleotide, approx. 24 hours, primer probe set RTS3454, relative to untreated control cells, Table 11",76%
same,percent inhibition of PKK at 0.19 μM,human PKK mRNA [2]; [5],0%
same,percent inhibition of PKK at 0.56 μM,human PKK mRNA [2]; [5],25%
same,percent inhibition of PKK at 1.67 μM,human PKK mRNA [2]; [5],66%
same,percent inhibition of PKK at 5.00 μM,human PKK mRNA [2]; [5],64%
same,IC50,"human PKK mRNA [2]; 4 point dose response, HepaRG cells, Table 40",1.1 µM
546826 (eA*eG*eT*eA*eT*d[5mC]*dA*d[5mC]*dT*dG*dT*dA*d[5mC]*dT*dA*eG*eT*eT*eT*e[5mC]; antisense) [compound 546826],% inhibition,human PKK mRNA [1]; [6],90%
same,percent inhibition of PKK at 0.19 μM,human PKK mRNA [2]; [7],17%
same,percent inhibition of PKK at 0.56 μM,human PKK mRNA [2]; [7],40%
same,percent inhibition of PKK at 1.67 μM,human PKK mRNA [2]; [7],87%
same,percent inhibition of PKK at 5.00 μM,human PKK mRNA [2]; [7],97%
same,IC50,"human PKK mRNA [2]; 4 point dose response, HepaRG cells, Table 36",0.7 µM
547584 (eG*eT*eA*eT*e[5mC]*dA*d[5mC]*dT*dG*dT*d[5mC]*d[5mC]*dT*dA*dT*eA*eT*e[5mC]*eA*e[5mC]; antisense) [compound 547584],% inhibition,"human PKK mRNA [1]; human PKK mRNA in HepaRG cells, 5-10-5 gapmers, Table 14",85%
same,percent inhibition of PKK at 0.19 μM,human PKK mRNA [2]; [8],26%
same,percent inhibition of PKK at 0.56 μM,human PKK mRNA [2]; [8],34%
same,percent inhibition of PKK at 1.67 μM,human PKK mRNA [2]; [8],76%
same,percent inhibition of PKK at 5.00 μM,human PKK mRNA [2]; [8],86%
same,IC50,"human PKK mRNA [2]; 4 point dose response, HepaRG cells, Table 38",0.7 µM
same,"percent inhibition of PKK mRNA, 0.19 μM","human PKK mRNA [2]; HepaRG cells, 0.19 μM antisense oligonucleotide",0%
same,"percent inhibition of PKK mRNA, 0.56 μM","human PKK mRNA [2]; HepaRG cells, 0.56 μM antisense oligonucleotide",21%
same,"percent inhibition of PKK mRNA, 1.67 μM","human PKK mRNA [2]; HepaRG cells, 1.67 μM antisense oligonucleotide",64%
same,"percent inhibition of PKK mRNA, 5.00 μM","human PKK mRNA [2]; HepaRG cells, 5.00 μM antisense oligonucleotide",92%
same,IC50,"human PKK mRNA [2]; HepaRG cells, 0.19-5.00 μM",1.3 µM
546827 (e[5mC]*eA*eG*eT*eA*dT*d[5mC]*dA*d[5mC]*dT*dG*dT*dA*d[5mC]*dT*eA*eG*eT*eT*eT; antisense) [compound 546827],% inhibition,human PKK mRNA [1]; [6],98%
same,percent inhibition of PKK at 5.00 μM,human PKK mRNA [2]; [9],96%
same,percent inhibition of PKK at 0.19 0μM,human PKK mRNA [2]; [9],23%
same,percent inhibition of PKK at 0.56 0μM,human PKK mRNA [2]; [9],74%
same,percent inhibition of PKK at 1.67 1μM,"human PKK mRNA [2]; 1.67 1μM, HepaRG cells, electroporation, approximately 16 hours, Table 41",98%
same,IC50,human PKK mRNA [2]; [10],0.4 µM
same,percent inhibition of PKK at 0.19 μM,human PKK mRNA [2]; [3],32%
same,percent inhibition of PKK at 0.56 μM,human PKK mRNA [2]; [3],70%
same,percent inhibition of PKK at 1.67 μM,human PKK mRNA [2]; [3],84%
same,percent inhibition of PKK at 5.00 μM,human PKK mRNA [2]; [3],90%
same,IC50,human PKK mRNA [2]; [4],0.3 µM
546848 (eT*e[5mC]*eA*e[5mC]*eT*dG*dT*d[5mC]*d[5mC]*dT*dA*dT*dA*dT*d[5mC]*eA*e[5mC]*eT*eG*eT; antisense) [compound 546848],% inhibition,human PKK mRNA [1]; [6],86%
same,percent inhibition of PKK at 0.19 μM,human PKK mRNA [2]; [11],0%
same,percent inhibition of PKK at 0.56 μM,human PKK mRNA [2]; [11],18%
same,percent inhibition of PKK at 1.67 μM,human PKK mRNA [2]; [11],91%
same,percent inhibition of PKK at 5.00 μM,human PKK mRNA [2]; [11],97%
same,IC50,"human PKK mRNA [2]; 4 point dose response, HepaRG cells, Table 39",1 µM
547423 (e[5mC]*e[5mC]*e[5mC]*eT*eT*dG*dT*dG*dT*d[5mC]*d[5mC]*d[5mC]*dA*dT*dA*e[5mC]*eG*e[5mC]*eA*eA; antisense) [compound 547423],% inhibition,"human PKK mRNA [1]; Table 8, HepaRG cells, electroporation with 5,000 nM antisense oligonucleotide, approx. 24 hours, PKK mRNA by RT-PCR (RTS3454), relative to untreated control cells",95%
same,percent inhibition of PKK at 0.19 0μM,human PKK mRNA [2]; [9],78%
same,percent inhibition of PKK at 0.56 0μM,human PKK mRNA [2]; [9],92%
same,IC50,human PKK mRNA [2]; [10],< 0.2 µM
same,percent inhibition of PKK at 0.19 μM,human PKK mRNA [2]; [3],37%
same,percent inhibition of PKK at 0.56 μM,human PKK mRNA [2]; [3],50%
same,percent inhibition of PKK at 1.67 μM,human PKK mRNA [2]; [3],92%
same,percent inhibition of PKK at 5.00 μM,human PKK mRNA [2]; [3],90%
same,IC50,human PKK mRNA [2]; [4],0.4 µM
